Experimental data published in patent US11116738B2, “Methods for treating neutropenia using retinoid agonists” (CHILDREN'S HOSPITAL LOS ANGELES, priority 2012, dated 2021).

Legend:
neutropenic mice = assay: Neutrophil recovery in CPA-induced neutropenic mice; type: in vivo, C57BL6/J mice
CD34+ cells [1] = type: cell-based; settings: for cell death rate (in words) / cell proliferation (in words): CD34+ cells, FIG. 6B, 6D
Protocol: Normal human primitive umbilical cord blood CD34+ cells were from AllCells (Emeryville, Calif.). CD34+ cells were expanded^29 about 50× by using StemSpan serum-free medium (StemCell Technologies, Vancouver, Canada) for 6 days according to the manufacturer's protocol. To induce granulopoiesis, CD34+ cells were cultured with myeloid medium supplemented with 25 ng/ml of G-CSF^17,29 for 6-12 days. […]. Each retinoid compound was dissolved in ethanol. The experimentally determined conditions, using 25 ng/ml of G-CSF^17,29 or 2.5 nM of Am80 for granulocytic induction of 6 days (FIG. 1), were applied in the studies.
Cell proliferation was determined by cell count with a standard hemocytometer, as described.^17,29 Briefly, equal numbers of cells plated in triplicate were counted for up to 13 days after 72 hr of plating. By using trypan blue exclusion, cell proliferation and its associated cell death in the cultures were measured simultaneously.

CD34+ cells [2] = assay: Morphologic analysis of granulocytic differentiation of CD34+ cells; type: cell-based, human; settings: for neutrophil morphologic differentiation, promyelocyte to segmented stage (in words): G-CSF 25 ng/ml or Am80 2.5 nM; for efficacy as inducer of granulocytic differentiation (in words): CD34+ cells, FIG. 6, day 12-13
Protocol: Normal human primitive umbilical cord blood CD34+ cells were from AllCells (Emeryville, Calif.). CD34+ cells were expanded^29 about 50× by using StemSpan serum-free medium (StemCell Technologies, Vancouver, Canada) for 6 days according to the manufacturer's protocol. To induce granulopoiesis, CD34+ cells were cultured with myeloid medium supplemented with 25 ng/ml of G-CSF^17,29 for 6-12 days. Lymphoid and erythroid cells were blocked during granulopoiesis by addition of hydrocortisone and exclusion of erythropoietin.^17, 29 All-trans retinoic acid (RA) was from Sigma (St. Louis, Mo.), while the retinoid agonists Am80, CH55, and IT-YA-01115 (ITYA) were from Research Foundation ITSUU Laboratory (Tokyo, Japan). Each retinoid compound was dissolved in ethanol. The experimentally determined conditions, using 25 ng/ml of G-CSF^17,29 or 2.5 nM of Am80 for granulocytic induction of 6 days (FIG. 1), were applied in the studies.
Cell suspensions were cytocentrifuged onto Micro slides, followed by methanol fixation and stained with Wright-Giemsa (Sigma) as described.^17,29 The morphologic indicators of differentiation were evaluated under a Zeiss Axioplan microscope, and images were color balanced with Adobe Photoshop as described.^17
Cells suspended in PBS containing 0.5% BSA and 2 mM EDTA were mixed with anti-CD15 antibodies conjugated to magnetic microbeads (Miltenyi Biotec, Bergish Gladbach, Germany) for incubation of 30 min at 4° C. CD15+ subpopulation was then purified by using magnetic sorter (Miltenyi Biotec, Bergish Gladbach, Germany) according to the manufacturer's protocol.

S. aureus = assay: Bactericidal activity in vitro of neutrophils purified from PB of treated neutropenic mice
Protocol: Each 5×10^5 to 2×10^6 of freshly purified PBN as well as ex vivo-induced GIN and AIN were suspended with 500 μl of culture medium (DMEM with 10% of FBS) in 1.5-ml tubes. Cells were incubated with log-phase Escherichia coli (E. coli) DH5α (provided by collaborator) or Staphylococcus aureus (S. aureus; ATCC) at an MOI of 5 or 10 at 37° C. for 15, 30, and/or 60 min, whereas bacteria in the absence of cells were used to determine growth. The samples with or without cells were centrifuged at 1000-rpm at each time point. Extracellular bacteria in the presence of cells were collected from the supernatants, and enumerated by plating different dilutions (20 μL each) on blood agar. Cell pellets collected from the samples infected with bacteria were further incubated with 100 μg/ml of gentamicin (Sigma) for 1 hr at 37° C. to kill external bacteria. Cells were then washed twice and lysed with 100 μL of 0.5% Triton X-100. Different-dilution aliquots (20 μL for each) of viable intracellular bacteria recovered from the cell lysates were plated on blood agar. The numbers of extracellular and viable intracellular bacteria at each time point were determined by CFU counts as described,^5,30 while the number of phagocytosed and killed bacteria was based on the counts of extracellular and viable intracellular bacteria to the number of relevant bacteria control in the neutrophil-free condition.^5,30

[3] = tested on: neutrophils induced from CD34+ cells; assay: Degranulation analysis by Western blotting with or without E. coli stimuli; type: cell-based, human; settings: FIGS. 1, 2
Protocol: Western blotting (WB) was performed as described.^15 Antibodies for lactoferrin (Abcam, Cambridge, UK), MMP-9 (Merck Chemicals, Darmstadt, Germany), and LL-37 (Biolegend, San Diego, Calif.) were used in analyses.
Cells were incubated with or without E. coli DH5α (MOI of 5; cell to bacteria ratio 1:5) in serum-free DMEM medium for 30 min at 37° C. Both cell pellets and supernatants were collected by 3,000-rpm centrifugation for 7 min. The cell pellets were suspended with 100 μg/ml of gentamicin and incubated at 37° C. for 1 hr, followed by collection of cells and extraction of cellular proteins. The supernatant was filtered with a 0.22-μm filter (Pall corporation, Ann Arbor, Mich.) and proteins in the supernatant were then concentrated by using an Amicon Ultra-4 centrifugal filter unit designed to collect proteins with a mass greater than 3,000 daltons (Millipore, Billerica, Mass.). The quantity of the proteins was measured by using Bio-Rad DC Protein Assay (Hercules, Calif.).^29 The change in granule protein levels with or without E. coli stimuli was analyzed in parallel by WB.

[4] = tested on: acute promyelocytic leukemia (APL); settings: APL patients; cited from earlier work

| Molecule | neutrophil recovery (in words) (neutropenic mice; day 3 post-CPA, Am80 5 mg/kg vs G-CSF of 250 μg, lower level of Ficoll-paque) | toxicity (in words) (CD34+ cells [1]; Am80 2.5 nM, 6 days) | cell death (in words) (CD34+ cells [1]; Am80 10 nM) | cell death rate (in words) (CD34+ cells [1]) | cell proliferation (in words) (CD34+ cells [1]) | neutrophil morphologic differentiation, promyelocyte to segmented stage (in words) (CD34+ cells [2]; 6 days) | granulocytic differentiation (in words) (CD34+ cells [2]; Am80 2.5 nM, 6 days) | efficacy as inducer of granulocytic differentiation (in words) (CD34+ cells [2]) | efficacy of mobilized neutrophils against S aureus infection (in words) (S. aureus) | granulocytic morphologic differentiation and granule production/secretion compared with G-CSF (in words) [3] | efficiency relative to RA or other retinoids as differentiation therapy [4] | toxicity relative to RA or other retinoids (in words) [4] | neutrophil recovery (in words) (neutropenic mice; day 5, injection for 2 consecutive days) | monocytes induced (CD34+ cells [2]; G-CSF 25 ng/ml, 6 days) | granulocytic differentiation and monocytic induction by treatment time (in words) (CD34+ cells [2]; G-CSF for 6, 9 and 12 days) |
| --- | --- | --- | --- | --- | --- | --- | --- | --- | --- | --- | --- | --- | --- | --- | --- |
| CC1(C)CCC(C)(C)c2cc(NC(=O)c3ccc(C(=O)O)cc3)ccc21 [Am80, tamibarotene] | competitive neutrophil recovery | less toxicity than 5 nM of Am80 | induced more cell death | lower than seen with either CH55 or RA | inhibited cell proliferation | sufficiently induced | profoundly induced granulocytic differentiation with negligible monocytic induction | promote granulocytic differentiation with similar effectiveness | significantly more efficacious against S aureus infection than those by G-CSF | more effective than G-CSF | approximately 10 fold | lower toxicity |  |  |  |
| CC(C)(C)c1cc(C(=O)/C=C/c2ccc(C(=O)O)cc2)cc(C(C)(C)C)c1 [CH55] |  |  |  |  | inhibited cell proliferation |  |  | promote granulocytic differentiation with similar effectiveness |  |  |  |  |  |  |  |
| CC1=C(/C=C/C(C)=C/C=C/C(C)=C/C(=O)O)C(C)(C)CCC1 [RA, all-trans retinoic acid] |  |  |  |  | inhibited cell proliferation |  |  | promote granulocytic differentiation with similar effectiveness |  |  |  |  |  |  |  |
| G-CSF: recombinant granulocyte colony-stimulating factor (protein, UniProt P09919 31-207, looked up) Granulocyte …: TPLGPASSLPQSFLLKCLEQVRKIQGDGAALQEKLVSECATYKLCHPEELVLLGHSLGIPWAPLSSCPSQALQLAGCLSQLHSGLFLYQGLLQALEGISPELGPTLDTLQLDVADFATTIWQQMEELGMAPALQPTQGAMPAFASAFQRRAGGVLVASHLQSFLEVSYRVLRHLAQP |  |  |  | lower rate of cell death compared to RA | greater cell proliferation | induced more myeloblasts as well as promyelocytes and myelocytes than banded and segmented neutrophils |  | significantly less efficacious |  |  |  |  | remarkably accelerated neutrophil recovery | about 10% | more effective granulocytic differentiation with the lowest rate of monocytic induction on day 6 |
